Laboratory results: PMC4806491, “The milk-derived fusion peptide, ACFP, suppresses the growth of primary human ovarian cancer cells by regulating apoptotic gene expression and signaling pathways” (BMC Cancer, 2016)
Converted amounts (≈) assume the structure as drawn. Read-outs that look alike come from different tables or passages of the source. Residues, ends and D or L forms follow the SMILES beside them.

System: primary ovarian cancer cells
Type: cell-based, human
Conditions: for growth of human primary ovarian cells: different concentrations, in vitro, n=12, Figure S1
Procedure: Fresh primary ovarian tumor tissues that were assessed and classified as serous ovarian adenocarcinoma (III-IV grade) according to WHO criteria were collected from 53 ovarian cancer patients who underwent initial debulking surgery at the first affiliated hospital of Anhui Medical University between June 2012 and June 2014. All patients had not received adjuvant therapies, such as chemotherapy or radiotherapy, prior to surgery. For comparison, normal ovarian glandular epithelium cells (NOGECs) were cultured from fresh primary normal ovarian tissues harvested from 7 patients with uterine fibromas, which were confirmed as negative for any neoplastic disease by pathological examination. Prior to tissue deposition, all patients signed written consent forms confirming their donation of tissue for research purposes according to the Declaration of Helsinki. This study was approved by the Anhui Medical University Review Board. Tumor or normal ovarian tissues were cut into small 1.0 mm^3 pieces, rinsed two times in phosphate buffered saline (PBS) and digested with 0.25 % trypsin in a sterile centrifuge tube at 37 °C for 30 min. To obtain a single cell suspension cell, digested tissues were filtered with a 100 μm cell strainer. Cells were collected by centrifugation at 1000 rpm for five minutes, and the cell pellet was re-suspended in Dulbecco’s modified eagle medium (DMEM) supplemented with 10 % fetal bovine serum (FBS). Cells were subsequently cultured in DMEM containing 0.1 mg/L epidermal growth factor (EGF), 0.1 mg/L insulin-like growth factor (IGF) and 0.1 mg/L beta-estradiol with 10 % FBS in 5 % CO2 at 37 °C. Once cells reached 70 to 80 % confluence, cell culture medium was drained from the flask, and cells were digested with 0.25 % collagenase II until approximately 1/3 of the cells fell to the bottom of the dish by eye using a microscope. Due to their initial shedding, most fibroblasts were eliminated by collagenase digestion. The remaining cells were cultured in 5 % CO2 at 37 °C. To determine purity, cells were analyzed using immunofluorescence of cytokeratin 7 (for ovarian cancer cells) or cytokeratin 19 (for normal ovarian epithelium cells).
Primary ovarian cancer cells were seeded into 96-well plates in sextuplicate at a starting density of 5 × 10^3 cells/well and incubated with ACFP at the concentrations: 0 (as control), 5 × 10^−6, 5 × 10^−5, 5 × 10^−4, 5 × 10^−3, 5 × 10^−2, 5 × 10^−1 and 5 g/L for 24, 48 and 72 h, respectively. Cells treated with paclitaxel at 5 × 10^−4 g/L were included in the same plate as a positive control. Cell viability was later measured using the WST-1 (water-soluble tetrazolium 1) cell viability and cytotoxicity assay kit (Beyotime, Haimen, China) according to the manufacturer’s instructions. The percent viability of cells was calculated using the formula to calculate the cell viability ratio (VR): VR (%) = (the experimental group A450nm value/control group A450nm value) × 100 %. To assess general toxicity of ACFP, viability of normal ovarian cells treated with ACFP was assayed using the same procedure. The effect of ACFP was compared with LfcinB and PGPIPN (the products of Shanghai Sangon Biological Engineering Technology, China). Each experiment was performed in two independent sets.

IC50, cell viability (24 h) | IC50, cell viability (48 h) | IC50, cell viability (72 h) | Structure (SMILES) | growth of human primary ovarian cells (48 h)
 |  |  | CC[C@H](C)[C@@H]1NC(=O)[C@H](CO)NC(=O)[C@@H]2CCCN2C(=O)[C@H](C)NC(=O)CNC(=O)[C@H](CC(C)C)NC(=O)[C@H](CCCCN)NC(=O)[C@H](CCCCN)NC(=O)[C@H](CCSC)NC(=O)[C@H](CCCNC(=N)N)NC(=O)[C@H](Cc2c[nH]c3ccccc23)NC(=O)[C@H](CCC(N)=O)NC(=O)[C@H](Cc2c[nH]c3ccccc23)NC(=O)[C@H](CCCNC(=N)N)NC(=O)[C@H](CCCNC(=N)N)NC(=O)[C@@H](NC(=O)[C@H](CCCCN)NC(=O)[C@@H](N)Cc2ccccc2)CSSC[C@@H](C(=O)N[C@H](C(=O)N[C@@H](CCCNC(=N)N)C(=O)N[C@@H](CCCNC(=N)N)C(=O)N[C@@H](C)C(=O)N[C@@H](Cc2ccccc2)C(=O)O)C(C)C)NC(=O)[C@H]([C@@H](C)O)NC1=O [LfcinB] | decreased growth
14.5 µg/mL (≈ 24.4 µM) | 9.3 µg/mL (≈ 15.7 µM) | 1.24 µg/mL (≈ 2.09 µM) | CC[C@H](C)[C@H](NC(=O)[C@@H]1CCCN1C(=O)CNC(=O)[C@@H]1CCCN1)C(=O)N1CCC[C@H]1C(=O)N[C@@H](CC(N)=O)C(=O)O [PGPIPN] (H-PGPIPN-OH) | decreased growth
